Test results as given in patent US10040790B2, “Bicyclic heterocycles as FGFR inhibitors” (Incyte Corporation, priority 2013, dated 2018).

How the values were obtained:
Type in all cases: biochemical
FGFR3 = FGFR3 (Homo sapiens (Human), UniProt P22607); experiment: FGFR Enzymatic Assay (FRET peptide phosphorylation), FGFR3; details: ATP 140 μM
Procedure: (§1) The inhibitor potency of the exemplified compounds was measured in an enzyme assay that measures peptide phosphorylation using FRET measurements to detect product formation. Inhibitors were serially diluted in DMSO and a volume of 0.5 μL was transferred to the wells of a 384-well plate. For FGFR3, a 10 μL volume of FGFR3 enzyme (Millipore) diluted in assay buffer (50 mM HEPES, 10 mM MgCl2, 1 mM EGTA, 0.01% Tween-20, 5 mM DTT, pH 7.5) was added to the plate and pre-incubated for 5-10 minutes. Appropriate controls (enzyme blank and enzyme with no inhibitor) were included on the plate. The assay was initiated by the addition of a 10 μL solution containing biotinylated EQEDEPEGDYFEWLE peptide substrate (SEQ ID NO: 1) and ATP (final concentrations of 500 nM and 140 μM respectively) in assay buffer to the wells. The plate was incubated at 25° C. for 1 hr. The reactions were ended with the addition of 10 μL/well of quench solution (50 mM Tris, 150 mM NaCl, 0.5 mg/mL BSA, pH 7.8; 30 mM EDTA with Perkin Elmer Lance Reagents at 3.75 nM Eu-antibody PY20 and 180 nM APC-Streptavidin). The plate was allowed to equilibrate for ˜1 hr before scanning the wells on a PheraStar plate reader (BMG Labtech).
(§2) GraphPad prism3 was used to analyze the data. The IC50 values were derived by fitting the data to the equation for a sigmoidal dose-response with a variable slope. Y=Bottom+(Top−Bottom)/(1+10^((Log IC50−X)*HillSlope)) where X is the logarithm of concentration and Y is the response.

FGFR1 = FGFR1 (Homo sapiens (Human), UniProt P11362); experiment: FGFR Enzymatic Assay (FRET peptide phosphorylation), FGFR1; details: ATP 210 μM, enzyme 0.02 nM
Procedure: as §1
(§3) FGFR1 and FGFR2 were measured under equivalent conditions with the following changes in enzyme and ATP concentrations: FGFR1, 0.02 nM and 210 μM, respectively and FGFR2, 0.01 nM and 100 μM, respectively. The enzymes were purchased from Millipore or Invitrogen.
as §2

FGFR2 = FGFR2 (Homo sapiens (Human), UniProt P21802); experiment: FGFR Enzymatic Assay (FRET peptide phosphorylation), FGFR2; details: ATP 100 μM, enzyme 0.01 nM
Procedure: as §1, §3, §2

Measured: IC50

Chain of FGFR3 (P22607 23-806): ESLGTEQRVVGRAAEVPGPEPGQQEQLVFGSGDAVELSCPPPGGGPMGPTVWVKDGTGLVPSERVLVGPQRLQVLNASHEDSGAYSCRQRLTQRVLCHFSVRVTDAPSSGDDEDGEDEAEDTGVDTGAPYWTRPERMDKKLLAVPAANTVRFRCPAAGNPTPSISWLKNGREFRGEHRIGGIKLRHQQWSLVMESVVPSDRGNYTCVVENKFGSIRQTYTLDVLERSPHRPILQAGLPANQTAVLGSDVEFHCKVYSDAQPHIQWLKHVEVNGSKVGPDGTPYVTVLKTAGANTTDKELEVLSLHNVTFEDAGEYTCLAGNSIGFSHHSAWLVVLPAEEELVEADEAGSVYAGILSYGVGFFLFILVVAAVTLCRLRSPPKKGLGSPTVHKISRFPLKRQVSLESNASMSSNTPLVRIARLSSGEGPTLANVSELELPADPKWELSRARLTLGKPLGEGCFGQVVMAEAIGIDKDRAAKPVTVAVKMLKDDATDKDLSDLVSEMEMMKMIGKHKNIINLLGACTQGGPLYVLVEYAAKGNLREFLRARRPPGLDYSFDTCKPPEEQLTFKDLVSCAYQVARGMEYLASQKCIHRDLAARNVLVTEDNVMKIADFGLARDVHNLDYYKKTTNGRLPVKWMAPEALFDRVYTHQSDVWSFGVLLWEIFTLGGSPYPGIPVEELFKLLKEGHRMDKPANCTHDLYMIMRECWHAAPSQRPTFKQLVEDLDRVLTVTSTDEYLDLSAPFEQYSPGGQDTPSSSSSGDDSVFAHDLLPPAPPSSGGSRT
Chain of FGFR2 (P21802 22-821): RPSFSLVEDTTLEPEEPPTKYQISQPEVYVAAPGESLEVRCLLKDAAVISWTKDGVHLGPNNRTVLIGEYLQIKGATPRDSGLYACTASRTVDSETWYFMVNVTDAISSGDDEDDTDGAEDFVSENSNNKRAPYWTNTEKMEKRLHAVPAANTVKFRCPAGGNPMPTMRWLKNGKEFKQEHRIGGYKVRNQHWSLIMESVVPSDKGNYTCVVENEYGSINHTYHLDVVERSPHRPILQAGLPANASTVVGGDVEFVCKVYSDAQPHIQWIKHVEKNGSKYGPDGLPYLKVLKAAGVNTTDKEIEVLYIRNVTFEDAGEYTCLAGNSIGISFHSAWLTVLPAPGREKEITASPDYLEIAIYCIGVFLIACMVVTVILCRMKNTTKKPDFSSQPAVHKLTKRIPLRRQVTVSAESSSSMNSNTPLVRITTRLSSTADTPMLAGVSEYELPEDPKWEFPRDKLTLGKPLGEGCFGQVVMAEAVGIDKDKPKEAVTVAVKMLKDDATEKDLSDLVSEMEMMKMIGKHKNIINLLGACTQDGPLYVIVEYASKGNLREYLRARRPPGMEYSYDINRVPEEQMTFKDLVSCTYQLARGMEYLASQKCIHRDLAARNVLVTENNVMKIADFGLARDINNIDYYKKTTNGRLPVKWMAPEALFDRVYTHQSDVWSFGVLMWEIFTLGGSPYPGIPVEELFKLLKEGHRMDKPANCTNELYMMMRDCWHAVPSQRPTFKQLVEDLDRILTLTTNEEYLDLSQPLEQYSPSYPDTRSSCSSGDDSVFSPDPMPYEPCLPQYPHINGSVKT
Chain of FGFR1 (P11362 22-822): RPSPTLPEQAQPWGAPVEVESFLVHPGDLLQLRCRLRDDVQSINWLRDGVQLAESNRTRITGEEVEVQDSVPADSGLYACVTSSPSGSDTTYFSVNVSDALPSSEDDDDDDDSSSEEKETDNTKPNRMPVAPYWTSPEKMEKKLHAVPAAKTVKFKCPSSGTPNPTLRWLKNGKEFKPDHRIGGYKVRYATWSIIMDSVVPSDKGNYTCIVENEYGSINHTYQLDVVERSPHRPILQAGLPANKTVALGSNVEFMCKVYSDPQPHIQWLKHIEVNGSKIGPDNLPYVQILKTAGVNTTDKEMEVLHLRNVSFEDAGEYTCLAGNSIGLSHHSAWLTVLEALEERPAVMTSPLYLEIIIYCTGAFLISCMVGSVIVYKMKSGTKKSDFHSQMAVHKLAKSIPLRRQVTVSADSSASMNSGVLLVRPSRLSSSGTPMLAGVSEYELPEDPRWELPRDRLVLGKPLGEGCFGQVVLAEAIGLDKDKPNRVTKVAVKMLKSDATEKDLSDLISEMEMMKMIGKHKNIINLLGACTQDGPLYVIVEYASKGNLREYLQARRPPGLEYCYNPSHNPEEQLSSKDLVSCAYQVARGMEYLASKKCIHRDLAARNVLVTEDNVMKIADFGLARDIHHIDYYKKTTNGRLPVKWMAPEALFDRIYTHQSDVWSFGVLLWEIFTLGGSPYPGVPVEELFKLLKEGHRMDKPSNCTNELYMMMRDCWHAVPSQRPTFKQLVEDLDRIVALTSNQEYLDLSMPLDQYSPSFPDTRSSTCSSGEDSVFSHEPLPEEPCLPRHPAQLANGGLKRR

COc1cc(OC)c(F)c(N2Cc3cnc(N)c(-c4cccnc4)c3N(C)C2=O)c1F [Example 16, 7-amino-3-(2,6-difluoro-3,5-dimethoxyphenyl)-1-methyl-8-pyridin-3-yl-3,4-dihydropyrido[4,3-d]pyrimidin-2(1H)-one]
< 100 nM: all assays above

COc1cc(OC)c(F)c(N2Cc3cnc(NC4CCOCC4)cc3C3(CC3)C2=O)c1F [Example 26, 2′-(2,6-difluoro-3,5-dimethoxyphenyl)-6′-(tetrahydro-2H-pyran-4-ylamino)-1′,2′-dihydro-3′H-spiro[cyclopropane-1,4′-[2,7]naphthyridin]-3′-one]
< 100 nM: all assays above

COc1cc(OC)c(F)c(N2Cc3cnc(NC4CCC4)cc3C3(CC3)C2=O)c1F [Example 42, 6′-(cyclobutylamino)-2′-(2,6-difluoro-3,5-dimethoxyphenyl)-1′H-spiro[cyclopropane-1,4′-[2,7]naphthyridin]-3′(2′H)-one]
< 100 nM: all assays above

COC(=O)Nc1ncc2c(c1C)N(C)C(=O)N(c1c(F)c(OC)cc(OC)c1F)C2 [Example 48, methyl [3-(2,6-difluoro-3,5-dimethoxyphenyl)-1,8-dimethyl-2-oxo-1,2,3,4-tetrahydropyrido [4,3-d]pyrimidin-7-yl]carbamate]
< 100 nM: all assays above

COc1cc(OC)c(F)c(N2Cc3cnc(Nc4cccc(F)c4)cc3C3(CC3)C2=O)c1F [Example 33, 2′-(2,6-difluoro-3,5-dimethoxyphenyl)-6′-(3-fluorophenylamino)-1′H-spiro[cyclopropane-1,4′-[2,7]naphthyridin]-3′(2′H)-one]
< 100 nM: all assays above

COc1cc(OC)c(F)c(N2Cc3cnc(N)cc3C(C)(C)C2=O)c1F [Example 22, 6-amino-2-(2,6-difluoro-3,5-dimethoxyphenyl)-4,4-dimethyl-1,2-dihydro-2,7-naphthyridin-3(4H)-one]
< 100 nM: all assays above

COc1cc(OC)c(F)c(N2Cc3cnc(NCCN4CCN(C)CC4)cc3C3(CC3)C2=O)c1F [Example 30, 2′-(2,6-difluoro-3,5-dimethoxyphenyl)-6′-(2-(4-methylpiperazin-1-yl)ethylamino)-1′H-spiro[cyclopropane-1,4′-[2,7]naphthyridin]-3′(2′H)-one]
< 100 nM: all assays above

COc1cc(OC)c(F)c(N2Cc3cnc(N)c(-c4ccnn4C)c3N(C)C2=O)c1F [Example 13, 7-amino-3-(2,6-difluoro-3,5-dimethoxyphenyl)-1-methyl-8-(1-methyl-1H-pyrazol-5-yl)-3,4-dihydropyrido[4,3-d]pyrimidin-2(1H)-one]
< 100 nM: all assays above

COc1cc(OC)c(F)c(N2Cc3cnc(NC4CC4)cc3C3(CC3)C2=O)c1F [Example 41, 6′-(cyclopropylamino)-2′-(2,6-difluoro-3,5-dimethoxyphenyl)-1′H-spiro[cyclopropane-1,4′-[2,7]naphthyridin]-3′(2′H)-one]
< 100 nM: all assays above

COc1cc(OC)c(F)c(N2Cc3cnc(NC[C@@H]4CCCO4)cc3C3(CC3)C2=O)c1F [Example 35, (S)-2′-(2,6-difluoro-3,5-dimethoxyphenyl)-6′-((tetrahydrofuran-2-yl)methylamino)-1′H-spiro[cyclopropane-1,4′-[2,7]naphthyridin]-3′(2′H)-one]
< 100 nM: all assays above

COc1cc(OC)c(F)c(N2Cc3cnc(N)c(/C=C/c4ccccc4)c3N(C)C2=O)c1F [Example 18, 7-amino-3-(2,6-difluoro-3,5-dimethoxyphenyl)-1-methyl-8-[(E)-2-phenylvinyl]-3,4-dihydropyrido[4,3-d]pyrimidin-2(1H)-one]
< 100 nM: all assays above

COc1cc(OC)c(F)c(N2Cc3cnc(N)c(C)c3N(c3ccccc3F)C2=O)c1F [Example 45, 7-amino-3-(2,6-difluoro-3,5-dimethoxyphenyl)-1-(2-fluorophenyl)-8-methyl-3,4-dihydropyrido[4,3-d]pyrimidin-2(1H)-one]
< 100 nM: all assays above

COc1cc(OC)c(F)c(N2Cc3cnc(N)c(-c4ccccc4)c3N(C)C2=O)c1F [Example 14, 7-amino-3-(2,6-difluoro-3,5-dimethoxyphenyl)-1-methyl-8-phenyl-3,4-dihydropyrido[4,3-d]pyrimidin-2(1H)-one]
< 100 nM: all assays above

COc1cc(OC)c(F)c(N2Cc3cnc(N)c(C#N)c3N(Cc3cc(F)cc(F)c3)C2=O)c1F [Example 52, 7-amino-1-(3,5-difluorobenzyl)-3-(2,6-difluoro-3,5-dimethoxyphenyl)-2-oxo-1,2,3,4-tetrahydropyrido[4,3-d]pyrimidine-8-carbonitrile]
< 100 nM: all assays above

COc1cc(OC)c(F)c(N2Cc3cnc(NCc4ccccn4)cc3C3(CC3)C2=O)c1F [Example 28, 2′-(2,6-difluoro-3,5-dimethoxyphenyl)-6′-(pyridin-2-ylmethylamino)-1′H-spiro[cyclopropane-1,4′-[2,7]naphthyridin]-3′(2′H)-one]
< 100 nM: all assays above

COc1cc(OC)c(F)c(N2Cc3cnc(N)c(Cc4ccccc4)c3N(C)C2=O)c1F [Example 20, 7-amino-8-benzyl-3-(2,6-difluoro-3,5-dimethoxyphenyl)-1-methyl-3,4-dihydropyrido[4,3-d]pyrimidin-2(1H)-one]
< 100 nM: all assays above

CCn1cc(-c2c(N)ncc3c2N(C)C(=O)N(c2c(F)c(OC)cc(OC)c2F)C3)cn1 [Example 9, 7-amino-3-(2,6-difluoro-3,5-dimethoxyphenyl)-1-methyl-8-(1-ethyl-1H-pyrazol-4-yl)-3,4-dihydropyrido[4,3-d]pyrimidin-2(1H)-one]
< 100 nM: all assays above

COc1cc(OC)c(F)c(N2Cc3cnc(NC4CCCC4)cc3C3(CC3)C2=O)c1F [Example 34, 6′-(cyclopentylamino)-2′-(2,6-difluoro-3,5-dimethoxyphenyl)-1′H-spiro[cyclopropane-1,4′-[2,7]naphthyridin]-3′(2′H)-one]
< 100 nM: all assays above

COc1cc(OC)c(F)c(N2Cc3cnc(Nc4cccnc4)cc3C3(CC3)C2=O)c1F [Example 32, 2′-(2,6-difluoro-3,5-dimethoxyphenyl)-6′-(pyridin-3-ylamino)-1′H-spiro[cyclopropane-1,4′-[2,7]naphthyridin]-3′(2′H)-one]
< 100 nM: all assays above

COc1cc(OC)c(F)c(N2Cc3cnc(NC4CC(F)(F)C4)cc3C3(CC3)C2=O)c1F [Example 43, 2′-(2,6-difluoro-3,5-dimethoxyphenyl)-6′-(3,3-difluorocyclobutylamino)-1′H-spiro[cyclopropane-1,4′-[2,7]naphthyridin]-3′(2′H)-one]
< 100 nM: all assays above

COc1cc(OC)c(F)c(N2Cc3cnc(N[C@H](C)c4ccccc4)cc3C3(CC3)C2=O)c1F [Example 38, (R)-2′-(2,6-difluoro-3,5-dimethoxyphenyl)-6′-(1-phenylethylamino)-1′H-spiro[cyclopropane-1,4′-[2,7]naphthyridin]-3′(2′H)-one]
< 100 nM: all assays above

COc1cc(OC)c(F)c(N2Cc3cnc(N)c(C#N)c3N(C3CCCC3)C2=O)c1F [Example 50, 7-amino-1-cyclopentyl-3-(2,6-difluoro-3,5-dimethoxyphenyl)-2-oxo-1,2,3,4-tetrahydropyrido[4,3-d]pyrimidine-8-carbonitrile]
< 100 nM: all assays above

COc1cc(OC)c(F)c(N2Cc3cnc(NCCN4CCOCC4)cc3C3(CC3)C2=O)c1F [Example 23, 2′-(2,6-difluoro-3,5-dimethoxyphenyl)-6′-[(2-morpholin-4-ylethyl)amino]-1′,2′-dihydro-3′H-spiro[cyclopropane-1,4′-[2,7]naphthyridin]-3′-one]
< 100 nM: all assays above

COc1cc(OC)c(F)c(N2Cc3cnc(N[C@H]4CC[C@H](O)CC4)cc3C3(CC3)C2=O)c1F [Example 40, 2′-(2,6-difluoro-3,5-dimethoxyphenyl)-6′-(trans-4-hydroxycyclohexylamino)-1′H-spiro[cyclopropane-1,4′-[2,7]naphthyridin]-3′(2′H)-one]
< 100 nM: all assays above
